Data reported in patent US20020026053A1, “Novel 3-(substituted) -2- indolinones compounds and use thereof as inhibitors of protein kinase activity” (priority 1997, published 2002).

Tests used:
[1] = test system: FLK-1 receptor; assay: FLK-1 Assay (cellular/catalytic ELISA, VEGF-stimulated phosphotyrosine); format: cell-based; parameters: concentration or dose not given beside the values; settings: protocol P.110
Method in brief: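 NIH3T3 C7#3 cells engineered to express Flk-1 were serum-starved overnight (0.1% FBS), then exposed to compound for 2 h at 37 °C (final dilution 1:200, 0.5% DMSO) before VEGF stimulation. Lysates captured on anti-FLK-1 antiserum plates; phosphotyrosine detected by UB40 antibody/POD-ABTS ELISA versus untreated controls.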

[2] = test system: PDGF-R; assay: PDGF-R Assay (cellular ELISA, U1242 cells); format: cell-based; parameters: concentration or dose not given beside the values; settings: protocol P.119
Method in brief: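 U1242 cells seeded in 0.5% serum, serum-starved, then exposed to compound for 2 hr at 37°C before 5–10 min ligand stimulation and lysis in HNTG. Lysate captured on receptor-antibody-coated plates; phosphotyrosine detected with polyclonal anti-pTyr, goat anti-rabbit IgG and ABTS/H2O2, A410 (ref 630 nm), versus untreated cells.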

| Compound | Flk Kinase % Inhibition (P.110) [1] | PDGF Kinase % Inhibition (P.119) [2] |
| --- | --- | --- |
| Cc1c(Br)cc(Br)c2c1C(=Cc1cc(O)cc(O)c1)C(=O)N2 [10738/H07] | −17.4% | – |
| Cc1c(Br)cc(Br)c2c1C(=Cc1ccc(Cl)c(Cl)c1)C(=O)N2 [10738/H08] | −12.7% | – |
| COc1ccccc1C=C1C(=O)Nc2c(Br)cc(Br)c(C)c21 [10738/H09] | −6.5% | – |
| Cc1c(Br)cc(Br)c2c1C(=Cc1ccc(C(C)C)cc1)C(=O)N2 [10738/H10] | 1.7% | – |
| CCCOc1ccc(C=C2C(=O)Nc3c(Br)cc(Br)c(C)c32)cc1 [10738/H11] | −4.1% | – |
| COc1ccc(C=C2C(=O)Nc3c(Br)cc(Br)cc32)cc1C [10739/A02] | 1.2% | 21.7% |
| O=C1Nc2c(Br)cc(Br)cc2C1=Cc1cccc(OCc2ccccc2)c1 [10739/A03] | 2.9% | 15.4% |
| O=C1Nc2c(Br)cc(Br)cc2C1=Cc1ccc(OCc2ccccc2)cc1 [10739/A04] | −8.2% | 23.2% |
| O=C1Nc2c(Br)cc(Br)cc2C1=CC1COc2ccccc2O1 (stereo not drawn) [10739/A05] | −11.0% | 15.9% |
| O=C1Nc2c(Br)cc(Br)cc2C1=Cc1ccc(O)cc1Cl [10739/A06] | 7.4% | 17.8% |
| O=C1Nc2c(Br)cc(Br)cc2C1=Cc1cc(O)c(O)c(O)c1 [10739/A07] | 4.1% | 34.8% |
| COc1ccc(Oc2cccc(C=C3C(=O)Nc4c(Br)cc(Br)cc43)c2)cc1 [10739/A08] | −25.5% | 3.8% |
| CN(C)CCCOc1ccc(C=C2C(=O)Nc3c(Br)cc(Br)cc32)cc1 [10739/A09] | −9.1% | −0.6% |
| O=C1Nc2c(Br)cc(Br)cc2C1=Cc1ccoc1 [10739/A10] | −2.5% | −1.1% |
| O=C1Nc2c(Br)cc(Br)cc2C1=Cc1ccc(CO)o1 [10739/A11] | 3.9% | 1.8% |
| COc1ccc(C=C2C(=O)Nc3ccc(I)cc32)cc1C [10739/B02] | 2.1% | 5.2% |
| O=C1Nc2ccc(I)cc2C1=Cc1cccc(OCc2ccccc2)c1 [10739/B03] | 3.5% | 1.8% |
| O=C1Nc2ccc(I)cc2C1=Cc1ccc(OCc2ccccc2)cc1 [10739/B04] | 13.2% | 19.8% |
| O=C1Nc2ccc(I)cc2C1=CC1COc2ccccc2O1 (stereo not drawn) [10739/B05] | 4.1% | 4.7% |
| O=C1Nc2ccc(I)cc2C1=Cc1ccc(O)cc1Cl [10739/B06] | 9.3% | 6.7% |

| Compound | Flk Kinase % Inhibition (P.110) [1] | PDGF Kinase % Inhibition (P.119) [2] |
| --- | --- | --- |
| O=C1Nc2ccc(I)cc2C1=Cc1cc(O)c(O)c(O)c1 [10739/B07] | 1.1% | 19.8% |
| COc1ccc(Oc2cccc(C=C3C(=O)Nc4ccc(I)cc43)c2)cc1 [10739/B08] | 6.5% | −0.1% |
| CN(C)CCCOc1ccc(C=C2C(=O)Nc3ccc(I)cc32)cc1 [10739/B09] | −15.4% | 74.1% |
| O=C1Nc2ccc(I)cc2C1=Cc1ccoc1 [10739/B10] | −10.1% | −16.1% |
| O=C1Nc2ccc(I)cc2C1=Cc1ccc(CO)o1 [10739/B11] | 12.5% | −9.8% |
| COc1ccc(C=C2C(=O)Nc3ccc(Br)c(C)c32)cc1C [10739/C02] | −10.8% | 10.6% |
| Cc1c(Br)ccc2c1C(=Cc1cccc(OCc3ccccc3)c1)C(=O)N2 [10739/C03] | 16.4% | 10.1% |
| Cc1c(Br)ccc2c1C(=Cc1ccc(OCc3ccccc3)cc1)C(=O)N2 [10739/C04] | 21.8% | 19.3% |
| Cc1c(Br)ccc2c1C(=CC1COc3ccccc3O1)C(=O)N2 (stereo not drawn) [10739/C05] | 5.6% | 31.4% |
| Cc1c(Br)ccc2c1C(=Cc1ccc(O)cc1Cl)C(=O)N2 [10739/C06] | 17.7% | 33.8% |
| Cc1c(Br)ccc2c1C(=Cc1cc(O)c(O)c(O)c1)C(=O)N2 [10739/C07] | −14.5% | 44.5% |
| COc1ccc(Oc2cccc(C=C3C(=O)Nc4ccc(Br)c(C)c43)c2)cc1 [10739/C08] | 4.8% | 11.0% |
| Cc1c(Br)ccc2c1C(=Cc1ccc(OCCCN(C)C)cc1)C(=O)N2 [10739/C09] | 10.0% | 105.6% |
| Cc1c(Br)ccc2c1C(=Cc1ccoc1)C(=O)N2 [10739/C10] | −7.1% | −18.6% |
| Cc1c(Br)ccc2c1C(=Cc1ccc(CO)o1)C(=O)N2 [10739/C11] | 70.6% | 9.1% |
| CNS(=O)(=O)c1ccc2c(c1)C(=Cc1ccc(OC)c(C)c1)C(=O)N2 [10739/D02] | 25.6% | 17.8% |
| CNS(=O)(=O)c1ccc2c(c1)C(=Cc1cccc(OCc3ccccc3)c1)C(=O)N2 [10739/D03] | −18.3% | 14.4% |
| CNS(=O)(=O)c1ccc2c(c1)C(=Cc1ccc(OCc3ccccc3)cc1)C(=O)N2 [10739/D04] | 11.8% | 7.2% |
| CNS(=O)(=O)c1ccc2c(c1)C(=CC1COc3ccccc3O1)C(=O)N2 (stereo not drawn) [10739/D05] | 12.2% | −6.9% |
| CNS(=O)(=O)c1ccc2c(c1)C(=Cc1ccc(O)cc1Cl)C(=O)N2 [10739/D06] | 9.0% | −43.8% |

| Compound | Flk Kinase % Inhibition (P.110) [1] | PDGF Kinase % Inhibition (P.119) [2] |
| --- | --- | --- |
| CNS(=O)(=O)c1ccc2c(c1)C(=Cc1cc(O)c(O)c(O)c1)C(=O)N2 [10739/D07] | −5.1% | 18.8% |
| CNS(=O)(=O)c1ccc2c(c1)C(=Cc1cccc(Oc3ccc(OC)cc3)c1)C(=O)N2 [10739/D08] | 14.3% | 5.7% |
| CNS(=O)(=O)c1ccc2c(c1)C(=Cc1ccc(OCCCN(C)C)cc1)C(=O)N2 [10739/D09] | −32.8% | 4.7% |
| COc1ccc(C=C2C(=O)Nc3ccc(S(=O)(=O)Nc4ccc(C(F)(F)F)cc4)cc32)cc1C [10739/E02] | 26.7% | 18.3% |
| O=C1Nc2ccc(S(=O)(=O)Nc3ccc(C(F)(F)F)cc3)cc2C1=Cc1cccc(OCc2ccccc2)c1 [10739/E03] | −119.0% | 2.8% |
| O=C1Nc2ccc(S(=O)(=O)Nc3ccc(C(F)(F)F)cc3)cc2C1=Cc1ccc(OCc2ccccc2)cc1 [10739/E04] | 17.7% | 5.2% |
| O=C1Nc2ccc(S(=O)(=O)Nc3ccc(C(F)(F)F)cc3)cc2C1=CC1COc2ccccc2O1 (stereo not drawn) [10739/E05] | 28.0% | 10.6% |
| O=C1Nc2ccc(S(=O)(=O)Nc3ccc(C(F)(F)F)cc3)cc2C1=Cc1ccc(O)cc1Cl [10739/E06] | 34.3% | 72.7% |
| O=C1Nc2ccc(S(=O)(=O)Nc3ccc(C(F)(F)F)cc3)cc2C1=Cc1cc(O)c(O)c(O)c1 [10739/E07] | 10.0% | 48.4% |
| COc1ccc(Oc2cccc(C=C3C(=O)Nc4ccc(S(=O)(=O)Nc5ccc(C(F)(F)F)cc5)cc43)c2)cc1 [10739/E08] | 17.2% | 21.7% |
| CN(C)CCCOc1ccc(C=C2C(=O)Nc3ccc(S(=O)(=O)Nc4ccc(C(F)(F)F)cc4)cc32)cc1 [10739/E09] | 24.5% | 18.3% |
| O=C1Nc2ccc(S(=O)(=O)Nc3ccc(C(F)(F)F)cc3)cc2C1=Cc1ccoc1 [10739/E10] | 11.2% | 25.6% |
| O=C1Nc2ccc(S(=O)(=O)Nc3ccc(C(F)(F)F)cc3)cc2C1=Cc1ccc(CO)o1 [10739/E11] | 15.3% | 15.9% |
| COc1ccc(C=C2C(=O)Nc3ccc(S(=O)(=O)N4CCOCC4)cc32)cc1C [10739/F02] | 25.5% | 6.2% |
| O=C1Nc2ccc(S(=O)(=O)N3CCOCC3)cc2C1=Cc1cccc(OCc2ccccc2)c1 [10739/F03] | 24.5% | −7.4% |
| O=C1Nc2ccc(S(=O)(=O)N3CCOCC3)cc2C1=Cc1ccc(OCc2ccccc2)cc1 [10739/F04] | 26.3% | −4.0% |
| O=C1Nc2ccc(S(=O)(=O)N3CCOCC3)cc2C1=CC1COc2ccccc2O1 (stereo not drawn) [10739/F05] | 8.7% | −4.5% |
| O=C1Nc2ccc(S(=O)(=O)N3CCOCC3)cc2C1=Cc1ccc(O)cc1Cl [10739/F06] | 13.7% | 9.1% |
